Values of other authors as cited in patent US10918652B2, “Compositions for the treatment of dermatological diseases and disorders” (CLARIDEI LABORATORIES, INC., priority 2014, dated 2021).

Settings: cited from Ramachandran et al. 2006

Q: With `O=C(O)[C@H](O)[C@@H](O)[C@H](O)[C@H](O)CO` [Gluconic acid] as the compound, how does the pKa read?
A: 3.7
